Data taken from patent US6994283B1, “Method for pulverizing to fine powder” (Nippon Shinyaku Co., Ltd., priority 1999, dated 2006).

Assays:
[1] = Confirmation of crystalline state by powder X-ray diffraction; format: physicochemical; conditions: after a pulverization time of 60 minutes, mill of the closed-circuit pulverizing type
Experimental: Confirmation of Crystalline State
Using each of the unpulverized present compound and the pulverizates of the same compound as obtained in Examples 1 and 2 and Comparative Example 1, the powder X-ray diffraction pattern was recorded with a powder x-ray diffraction analyzer (RAD-2B, manufactured by Rigaku Denki).
It will be apparent from the drawings that the pulverizates as micronized with a mill of the open-circuit pulverizing type retained the crystalline form, showing X-ray diffraction peaks.

[2] = Determination of particle diameter (ultracentrifugal automatic particle size distribution analyzer, silicone oil dispersion); format: physicochemical
Experimental: Determination of Particle Diameter
Twenty (20) mg each of the pre-pulverized present compound and the pulverizates of the compound as obtained in Examples 1 and 2 and Comparative Example 1 was taken in a test tube and 5 ml of silicone oil (product of Shin-Etsu Chemical Co.) was added. The mixture was stirred with a bench-top mixer for 20 seconds and further dispersed with a bench-top supersonic washer (UT-51N, product of Sharp Corporation) for 5 minutes. Then, the particle size distribution was determined with an ultracentrifugal automatic particle size distribution analyzer (CAPA-700, manufactured by Horiba, Ltd.).

[3] = Administration experiment (in vivo): oral capsule, plasma concentration of the metabolite by HPLC; conditions: 4 male crab-eating monkeys, capsule of Example 1 pulverizate versus capsule of unpulverized compound
From the text: Administration Experiment (in vivo)
A capsule prepared using the unpulverized present compound and a capsule prepared using the pulverizate obtained in Example 1 (the present pulverizate) according to the physical blending formula shown in Table 2 were respectively administered orally to 4 crab-eating monkeys (male, aged 6˜9 years). The blood was serially sampled and the plasma concentration of the metabolite of the present compound [(E)-4-[2-[2-[N-(4-methoxybenzenesulfonyl)amino]phenyl]-ethenyl]pyridine 1-oxide] was determined by HPLC.
The abscissa represents time (hrs) and the ordinate represents the plasma concentration (μg/ml) of the metabolite.

[4] = after 120 min. pulverization, planetary ball-mill
[5] = before pulverization (bulk powder)

## COc1ccc(S(=O)(=O)N(C(C)=O)c2ccccc2/C=C/c2cc[n+]([O-])cc2)cc1 [Comparative Example, (E)-4-[2-[2-[N-acetyl-N-(4-methoxybenzenesulfonyl)amino]phenyl]ethenyl]-pyridine 1-oxide]
[1]
  Crystalline state (X-ray diffraction peaks): changed to a non-crystalline compound showing no X-ray diffraction peaks
[2]; after 30 min. pulverization, planetary ball-mill
  Mean particle diameter: 15.1 μm
[2]; after 60 min. pulverization, planetary ball-mill
  Mean particle diameter: 12.4 μm
[2]; [4]
  Fraction of particles ≧30 μm: 0%
  Mean particle diameter: 10.7 ± 4.5 μm
[2]; [5]
  Fraction of particles ≧30 μm: 35.5%
  Fraction of particles ≧50 μm: 20.4%
  Mean particle diameter: 25.9 ± 43.3 μm

## COc1ccc(S(=O)(=O)N(C(C)=O)c2ccccc2/C=C/c2cc[n+]([O-])cc2)cc1 [Example 1, (E)-4-[2-[2-[N-acetyl-N-(4-methoxybenzenesulfonyl)amino]phenyl]ethenyl]-pyridine 1-oxide]
[2]; after pulverization
  Fraction of particles ≧30 μm: 0%
  Mean particle diameter: 9.7 ± 4.3 μm
[2]; [5]
  Fraction of particles ≧30 μm: 35.5%
  Fraction of particles ≧50 μm: 20.4%
  Mean particle diameter: 25.9 ± 43.3 μm

## COc1ccc(S(=O)(=O)N(C(C)=O)c2ccccc2/C=C/c2cc[n+]([O-])cc2)cc1 [Example 2, (E)-4-[2-[2-[N-acetyl-N-(4-methoxybenzenesulfonyl)amino]phenyl]ethenyl]-pyridine 1-oxide]
[2]; after pulverization
  Fraction of particles ≧30 μm: 6.8%
  Fraction of particles ≧50 μm: 0%
  Mean particle diameter: 15.2 ± 6.8 μm
[2]; [5]
  Fraction of particles ≧30 μm: 26.6%
  Fraction of particles ≧50 μm: 12.8%
  Mean particle diameter: 24.2 ± 31.2 μm

## COc1ccc(S(=O)(=O)N(C(C)=O)c2ccccc2/C=C/c2cc[n+]([O-])cc2)cc1 [the present compound, (E)-4-[2-[2-[N-acetyl-N-(4-methoxybenzenesulfonyl)amino]phenyl]ethenyl]-pyridine 1-oxide]
[3]
  Plasma concentration (metabolite determined by HPLC): significantly increased
